Data published in US20260223845A1, “METHOD FOR PRODUCING TRYPTOPHAN DECOMPOSITION PRODUCT, METHOD FOR PRODUCING FORMYLKYNURENINE, METHOD FOR PRODUCING KYNURENINE, METHOD FOR PRODUCING TRYPTOPHAN RADICAL-CONTAINING AQUEOUS SOLUTION, AND BACTERICIDAL AQUEOUS SOLUTION” (NATIONAL UNIVERSITY CORPORATION TOKAI NATIONAL HIGHER …, priority 2023, published 2026).
Like-named read-outs stand apart in the source and are kept apart here.

Assays:
[1] = system: Escherichia coli; assay: Bactericidal effect test of redissolved HPLC fractions on Escherichia coli suspension, colony counting method; format: cell-based; conditions: component redissolved in ultrapure water, liquid temperature 24° C., mixed with Escherichia coli suspension, counted after 10 minutes; FIG. 5
Protocol: Each aqueous solution (liquid temperature: 24° C.) prepared by redissolving each component in ultrapure water was mixed with a suspension of Escherichia coli, and after 10 minutes, the viable cell count of Escherichia coli was measured by a colony counting method. The viable cell count of Escherichia coli was also measured in the same manner for the oxygen radical-unirradiated aqueous solution.

[2] = Lifespan of tryptophan radical in aqueous solution; format: physicochemical; conditions: in oxygen radical-irradiated aqueous solution
Description: The precursor generated from Trp may be composed solely of Trp⋅, may be composed solely of Trp peroxide, or may include both Trp⋅ and Trp peroxide. […] Trp⋅ can be detected by electron spin resonance (ESR) spectroscopy. FKYN is generated by cleavage of a pyrrole ring in Trp peroxide. This cleavage occurs naturally in an aqueous solution. In other words, Trp peroxide decomposes on its own. Furthermore, since the generation of FKYN has been confirmed in the present disclosure, it is inferred that Trp peroxide is also generated, despite having a short lifespan. KYN is generated by the decomposition of FKYN.

[3] = Bactericidal effect of oxygen radical-irradiated tryptophan-containing aqueous solution (previous research of the inventors; inference in Experimental Examples 1 to 3); format: cell-based; conditions: inferred from inactive FKYN, KYN, L-Trp fractions and ESR detection of Trp⋅
Description: Therefore, in this experimental example, an attempt was made to detect Trp⋅ by electron spin resonance (ESR) spectroscopy.
Here, as shown in FIG. 12 (b), it is known that Trp. is generated by the reaction between Trp and OH⋅. […] In the formulae in FIG. 12(b), X is indicated because it is thought that OH extracts H from Trp and X becomes H2O, but what is actually formed has not been accurately confirmed at this stage.
From the above-described Experimental Examples 1 to 3, it was confirmed that the substances primarily generated by irradiating the tryptophan-containing aqueous solution with oxygen radicals are FKYN and KYN. In addition, Trp⋅, considered to be a precursor of FKYN and KYN, was detected by ESR measurement from the oxygen radical-irradiated aqueous solution. Based on the above, it is considered that short-lived precursors of FKYN and KYN (Trp⋅ and Trp peroxide) are also expressed in large quantities by the oxygen radical irradiation in terms of total generation concentration, and it can be said that the above-described precursors are bactericidal substances.

[4] = maintaining a temperature of 15° C. or lower; cited from earlier work

Row | Compound | bactericidal effect (viable cell count of Escherichia coli) [1] | lifespan [2] | bactericidal effect [3] | lifespan [4]
1 | N[C@@H](Cc1c[nH]c2ccccc12)C(=O)O [L-Trp, L-tryptophan] | not bactericidal substances |  |  | 
2 | NC(CC(=O)c1ccccc1NC=O)C(=O)O (stereo not drawn) [component P1, formylkynurenine] | not bactericidal substances |  |  | 
3 | Nc1ccccc1C(=O)CC(N)C(=O)O (stereo not drawn) [component P2, kynurenine] | not bactericidal substances |  |  | 
4 | tryptophan radical [Trp⋅] |  | short-lived substance | has a bactericidal effect | can be extended
